Row | SMILES | melting point [°C]
1 | CC(C)Nc1nc(N2CCOCC2)nc2cscc12 | 202
2 | COCCc1cc([N+](=O)[O-])cc([N+](=O)[O-])c1 | 65
3 | Cn1ccnc1Sc1c(N)cccc1Cl | 123 to 124
4 | Clc1csc2c(Cl)cccc12 | 100 to 102
5 | CC(C)(C)C(=O)OCn1nnc(-c2cc(Br)ccc2NC(=O)c2cccc(S(=O)(=O)N3CCOCC3)c2)n1 | 210 to 212
6 | COC(=O)c1sc2cc([N+](=O)[O-])ccc2c1N | 169 to 170
7 | O=c1[nH]nc2ccc(OCCCN3CCC(OC(c4ccccc4)c4ccccc4)CC3)nn12 | 209 to 211
8 | COc1ccc2c(Cl)c(C(=O)Cl)sc2c1 | 120 to 121
9 | O=c1c2c(CSc3ncnc4[nH]cnc34)cccc2nc(C(F)(F)F)n1-c1ccccc1Cl | 218 to 219
10 | CN1CCC(Sc2ccc3[nH]c(=O)[nH]c3c2)CC1 | 214 to 215
11 | Cc1ccc(C(=O)Nc2cc(Cl)c(O)c(Cl)c2)c(O)c1 | 246 to 247
12 | O=C(NCC(F)(F)F)C1CC(=O)N(Cc2ccccc2)C1 (stereo not drawn) | 110 to 112
13 | Cc1ccc(-c2coc3c(C)c(C)cc(C)c23)nc1 | 134 to 135
14 | Cc1c(C(=O)c2cc(O)c(O)c([N+](=O)[O-])c2)[nH]c2ccccc12 | 212 to 214
15 | Cc1c(NC(=O)c2ccc(OC[C@@H]3CCCO3)cc2)ccc2c1cc(CNCC(C)(C)C)n2C | 179
16 | Cc1cc(C)cc(NC(=O)[C@@H](C)NC(=O)c2cc([N+](=O)[O-])c(Cl)c([N+](=O)[O-])c2)c1 | 202 to 204
17 | O=C1N(Cc2cnc(N3CCCCC3)s2)c2ccccc2C12COc1cc3c(cc12)OCO3 (stereo not drawn) | 195 to 197
18 | COC(CNC(=O)c1cccc(C(=O)NCC(OC)OC)c1)OC | 76.5 to 78
19 | COc1c(C)cc(-c2[nH]c3ccc(NS(=O)(=O)c4ccc(C)cc4)cc3c2C)cc1C | 192 to 194
20 | NC(=O)c1cc2cc(N3CCNCC3)ccc2o1 | 252 to 255
21 | O=c1[nH]c2ccccc2c(=O)n1Cc1ccc(Cl)c(Cl)c1 | 274 to 275
22 | CCc1nc2c(c(C)c(C)n3nnnc23)n1CCOCCNS(=O)(=O)CCCCl | 126 to 129
23 | Fc1ccc2sc(COc3cccc(CBr)c3)nc2c1 | 99 to 100
24 | CCCc1c(OCC(O)COc2ccc(C(=O)O)cc2Br)ccc(C(C)=O)c1O (stereo not drawn) | 93 to 95
25 | O=c1[nH]c2c3ccccc3ccc2n(C2CC2)c1=O | 307

Row | SMILES | melting point [°C]
26 | O=C1Nc2ccccc2C1CCCCN1CCN(c2cccc(Cl)c2)CC1 (stereo not drawn) | 112 to 114
27 | COC(=O)CCc1cc(C(=O)c2cccc(C#N)c2)ccc1OCCCCC=Cc1ccc(OC)cc1 | 65 to 67
28 | O=C(Oc1cc(F)ccc1F)c1cc2ccccc2oc1=O | 134 to 137
29 | Cc1ccc2c(N)c3c(nc2c1)CCSC3 | 239 to 245
30 | O=C(Nc1cc(F)cc(F)c1)c1ccccn1 | 111 to 113
31 | N#Cc1ccc2nc(C(O)(Cn3cncn3)c3ccc(F)cc3F)sc2c1 (stereo not drawn) | 170 to 172
32 | CC(C)(C)c1cc(CCc2ccccc2NC(=O)NC2CCN(Cc3ccncc3)CC2)cc(C(C)(C)C)c1O | 156 to 158
33 | N#Cc1cc2c(Cl)ncnc2s1 | 185 to 190
34 | COCC1CN(c2ccc(C3CCC(O)CC3)cc2)C(=O)O1 (racemic) | 109 to 110
35 | Cc1cc(C)cc(-n2ncc(-c3ccc(S(C)(=O)=O)cc3)c(-c3ccc(F)cc3)c2=O)c1 | 130 to 134
36 | N#Cc1ccc(Nc2nc(Oc3c(Br)cc(CO)cc3Br)ccc2[N+](=O)[O-])cc1 | 209 to 213
37 | Cc1ccc(N(c2ccc(-c3ccc(-c4ccc(N(c5ccc(C)cc5)c5ccc6c(c5)CCC6)cc4)cc3)cc2)c2ccc3c(c2)CCC3)cc1 | 207 to 208
38 | COC(=O)c1ccc2c3cccc4cccc(c5ccc(C(=O)OC)c1c25)c43 | 256 to 257
39 | COc1cccc(C23CCCC=C2C(=O)N(CCc2ccccc2)C(=O)C3)c1 (stereo not drawn) | 134 to 135
40 | CCCCCC1COc2cc(C3COC(C4COc5c(cc(F)c(C#N)c5F)C4)OC3)c(F)cc2C1 (stereo not drawn) | 111
41 | N=C(N)Nc1nc2c(s1)CCN(C(=O)c1ccc(NC(=O)c3ccccc3-c3ccccc3)cc1)c1ccccc1-2 | > 250
42 | CN1CCN(Cc2ccc(C(=O)O)cc2)CC1 | 310 to 312
43 | CCCCc1nc2cccc(C(=O)OC)c2n1Cc1ccc(-c2ccccc2CO)cc1 | 126 to 127
44 | CCCCS(=O)(=O)c1ccc2nn(-c3cc(C(C)(C)CC(C)(C)C)cc(C(C)(C)c4ccccc4)c3O)nc2c1 | 118
45 | COC(=O)c1cc(Oc2c(Cl)cc(C(F)(F)F)cc2Cl)n[nH]1 | 114 to 116
46 | CC(=O)NC[C@@H]1CCCc2cc(S(=O)(=O)c3ccccc3)cc(F)c21 | 152 to 154
47 | CCN(CC)c1cc(C)c2c(c1)C(=O)OC2=O | 128
48 | CC(=O)SCCCC1(C)C(=O)N2CCCC(C(=O)O)N2C1=O (stereo not drawn) | 160 to 161
49 | Cc1cc(O)ccc1-n1cc(C(=O)O)c(=O)cc1C1CCC(N(C)C)CC1 (stereo not drawn) | 207 to 215
50 | Clc1ccccc1-c1n[nH]c(-c2ccccc2Cl)n1 | 159 to 160

Row | SMILES | melting point [°C]
51 | O=C(O)C1=CSC2CC(=O)N12 (stereo not drawn) | 235
52 | O=C(NCCO)/C(=C/c1ccc(OC(F)(F)F)cc1)NC(=O)c1ccc(OCCCC(F)(F)F)cc1 | 160 to 163
53 | C[C@@H]1OC(=O)[C@@H](NC(=O)OC(C)(C)C)COC[C@H](Cc2ccccc2)[C@H]1OCCC(=O)N(C)C | 142 to 143
54 | COc1ccc(S(=O)(=O)N(CCC(N)=O)c2ccc(Cl)cc2Cc2c(F)cccc2F)cc1OC | 189
55 | CNC(=O)Oc1cnn(C(C)C)c1 | 40
56 | CCCC(=O)c1sc(NC(=O)c2ccncc2)nc1-c1ccco1 | 191 to 194
57 | O=c1c2ccc(Cl)cc2[nH]c2c(=O)n(-c3ccc(Cl)cc3Cl)nc(O)c12 | 342 to 343
58 | COc1ccc(C(=O)P2(=O)Oc3ccccc3-c3ccccc32)c(OC)c1 (stereo not drawn) | 112 to 115
59 | CC(=O)Nc1sc(C(=O)OCc2ccccc2)c(C)c1C(=O)OC(C)(C)C | 157 to 158
60 | O=C(NCc1ccccc1Cl)c1cccnc1Oc1ccc(F)cc1F | 122 to 124
61 | Brc1ccc(C=Cc2cccc3ccccc23)cc1 | 106
62 | CC1(C)Cc2cccc(Oc3ccc(NC(=O)NC(=O)c4c(F)cccc4F)cc3Cl)c2O1 | 171
63 | CCc1nc2c(N)nc3cc(OCCc4c[nH]c5ccccc45)ccc3c2s1 | 218 to 220
64 | Cn1c(-c2ccc(C(O)(C(F)(F)F)C(F)(F)F)cc2)cc2ccccc2c1=O | 265 to 266
65 | Cc1c(-n2ccnc2)n(CCCCCCCC(=O)O)c2ccccc12 | 101 to 103
66 | CC=CC1=NC(=Cc2cccs2)C(=O)O1 | 174 to 176
67 | CS(=O)(=O)N[C@@H]1CCCC[C@H]1Nc1nc(Nc2cc(F)cc3c2OCCNC3=O)ncc1Cl | 177 to 181
68 | CC(C)C[C@H](NC(=O)OCc1ccccc1)C(=O)N[C@@H](Cc1ccccc1)C(=O)CN(C)C | 81 to 82
69 | O=C1NC(=S)SC1=Cc1ccc(C(F)(F)F)o1 | 174
70 | Oc1cccc2c1CC(NC1CC1)CO2 (stereo not drawn) | 147 to 148
71 | Cn1c2c(c3ccccc31)C(=O)NCC2 | 240 to 244
72 | Cc1cccc(-c2[nH]cnc2-c2ccc(F)c(Br)c2)n1 | 205
73 | COc1ccc2cc([C@H](C)C(=O)OCC(=O)N(C)CC(=O)OCCCO)ccc2c1 | 41 to 43
74 | O=CNC1Cc2ccccc2C1 | 72 to 74
75 | CCCC1OC(C(=O)OC)CC2=C1C(=O)c1ccccc1C2=O (stereo not drawn) | 112 to 114

Row | SMILES | melting point [°C]
76 | CCOC(=O)c1ccc(N2CCN(c3c(C)nc(N)nc3N)CC2)cc1 | 281 to 285
77 | CN(C)S(=O)(=O)c1ccc2c(c1)S(=O)(=O)NC2=O | 198 to 200
78 | Nc1ccc(-c2noc(-c3cnn4c(C(F)(F)F)cc(-c5ccc(C(F)(F)F)c(OCC(F)(F)F)c5)nc34)n2)cn1 | 284
79 | CCCCc1nc2c(N)nc3ccccc3c2n1CCCNS(=O)(=O)c1ccccc1 | 210 to 212
80 | Nc1nc2c(ncn2COCCCOC(=O)c2ccccc2)c(=O)[nH]1 | 198 to 201
81 | COC(=O)C1(N2CCCCC2)CCN(Cc2ccccc2)CC1 | 84.7
82 | O=Cc1cc(-c2ccccc2)c2ccc3c(-c4ccccc4)cc(C=O)nc3c2n1 | 165 to 170
83 | CC(C)N(Sc1ccc([N+](=O)[O-])cc1C(Cl)(Cl)Cl)C(C)C | 104
84 | CCc1c(C)c2c(c(O)c1C/C=C(\C)CCC(=O)OC)C(=O)OC2 | 116
85 | CCC1N=C(c2ccccc2Cl)c2cc(CCC(=O)OC)sc2NC1=O (stereo not drawn) | 187 to 189
86 | O=C(O)CCCCCOc1cccc(CCCCCCOc2ccc3c(c2CCCc2ccccc2)OCCC3=O)c1CCC(=O)O | 97 to 98
87 | Clc1cccc2cnsc12 | 50 to 51
88 | COC(=O)c1ccc2c(c1)S(=O)c1cc3c(cc1CC2)CCC3 (stereo not drawn) | 150 to 154
89 | CCC(C)Nc1c(-c2ccc(OC)cc2Cl)c(Cl)nc2ncnn12 (stereo not drawn) | 116
90 | CC(=O)Nc1ccc(C(=O)N2CC3CNCC(C3)C2)cc1 | 186 to 189
91 | CN1C(=O)C(C)(C)C(=O)N(C)c2cc(Br)ccc21 | 194 to 195
92 | COc1cc(C(=O)N2CCC(CCN3CCC(C(=O)c4nc5ccccc5n4Cc4ccc(C(=O)O)cc4)CC3)(c3ccccc3)C2)cc(OC)c1OC (stereo not drawn) | 173 to 190
93 | O=C(CCN1CCN(Cc2ccccc2)CC1)c1ccc2[nH]c(=O)oc2c1 | > 300
94 | Cc1c(-c2ccncc2)sc(-c2ccncc2)c1CF | 148
95 | CC1(C)Cc2cccc(S(N)(=O)=O)c2S1 | 102 to 104
96 | COC=C(C(=O)OC)c1c(OCc2cc(Cl)ccc2Cl)c(C)nn1C | 94 to 96
97 | CN1C(=O)C(c2c[nH]c3ccc(F)cc23)=C(c2c[nH]c3ccc(F)cc23)C1=O | > 290
98 | CC1(C)Oc2ccc([N+](=O)[O-])cc2C(n2ccccc2=O)=C1CNC=O | 170

Reference: a melting point compilation (Tetko et al.; mined from patent text by program, amines drawn as free bases though some values may be those of a salt)
